Molecules are shown by their SMILES. “And” between values parts separate entries of the source, which are not always exact repeats. Equal values may be shown once. Read-outs that look alike come from different tables or passages of the source.

The target in experiment [1] is T1, human indoleamine 2,3-dioxygenase (hIDO) (Homo sapiens, UniProt P14902). Briefly: Equilibrium ligand/substrate titration by optical absorption. It counts as binding. The following applies: ferrous hIDO at 50 μM L-Trp, on the basis of Kd 400 μM.
The target in experiment [2] is T1, human indoleamine 2,3-dioxygenase (hIDO). In words: Stopped-flow binding kinetics.
The target is the same in experiment [3]. Briefly: Steady-state kinetics of hIDO. The format is biochemical.
Experiment [4] shares this target. The following applies: L-Trp binding to ferric hIDO; cited from earlier work.
Experiment [5] shares this target. The settings on record: cited from earlier work.
Experiment [6] deals with rabbit indoleamine 2,3-dioxygenase (rIDO). The settings on record: read-out: Kd^eq, cited from earlier work.
Experiment [7] deals with TDO (xcTDO). The settings on record: read-out: Kd^eq, cited from earlier work.
The subject of experiment [8] is TDO (xcTDO). The following applies: cited from earlier work.
In experiment [9] the test system is rabbit indoleamine 2,3-dioxygenase (rIDO). The settings on record: cited from earlier work.

T1 sequence (P14902 whole entry): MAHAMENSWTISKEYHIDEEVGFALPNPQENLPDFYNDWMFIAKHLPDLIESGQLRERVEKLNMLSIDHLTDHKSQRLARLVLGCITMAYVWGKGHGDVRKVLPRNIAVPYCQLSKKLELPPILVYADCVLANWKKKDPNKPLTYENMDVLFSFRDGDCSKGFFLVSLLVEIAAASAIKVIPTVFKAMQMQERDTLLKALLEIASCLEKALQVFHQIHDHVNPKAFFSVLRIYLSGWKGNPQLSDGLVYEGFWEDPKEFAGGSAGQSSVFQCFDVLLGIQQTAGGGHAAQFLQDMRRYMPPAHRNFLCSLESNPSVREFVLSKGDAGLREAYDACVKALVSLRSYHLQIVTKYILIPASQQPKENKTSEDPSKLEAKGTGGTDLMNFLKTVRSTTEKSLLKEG

Turning to `N[C@@H](Cc1c[nH]c2ccccc12)C(=O)O` [L-Trp, L-Tryptophan], the “enzyme in the substrate-bound form” value in [1] is ~ 5%. In addition, the Kd was 1000 µM in [2] (Fe^3+ + Trp, calculated from kinetic constants); 23 µM in [2] (Fe^3+–CN^− + Trp, calculated from koff/kon); 13 µM in experiment [6] (rIDO Fe^2+ + Trp); 5800 µM in experiment [6] (rIDO Fe^3+ + Trp, ref 16); 30000 µM in experiment [6] (rIDO Fe^3+ + Trp, ref 35); 10 to 20 µM in [6] (rIDO Fe^3+–CN^− + Trp, ref 34). Also, the Kd is 16 µM in [6] (rIDO Fe^3+–CN^− + Trp, ref 35); 4.12 µM on TDO (xcTDO) [7] (TDO Fe^2+ + Trp); 3800 µM at TDO (xcTDO) [7] (TDO Fe^3+ + Trp). For the same compound, the “binding of L-Trp to the second binding site” value in experiment [2] (cyanide-bound ferric hIDO, higher L-Trp concentrations, stopped-flow) was “too fast to be measured”. For the same compound, the “ΔΔG of L-Trp binding” value in [2] (effect of prebinding of cyanide, tighter substrate binding) is -2.3 kcal/mol. For the same compound, in experiment [2] (koff, cyanide-bound vs ligand-free ferric hIDO), the “retardation of L-Trp dissociation by prebinding of cyanide” value was 2 fold. In addition, the “facilitation of L-Trp binding by prebinding of cyanide” value in [2] (kon, cyanide-bound vs ligand-free ferric hIDO) was ~ 22 fold and 22 fold. In [2] (ligand-free ferric hIDO with 0.75 mM L-Trp, trace at 403 nm, 20 °C), this compound gave an observed rate constant of 10 s⁻¹. In [3] (Km (15 μM) vs Kd (0.4 mM) of ligand-free ferrous hIDO), the “Km of L-Trp lower than Kd of L-Trp” value was ~ 27 fold and 27 fold. Further, the “Km lower than Kd (L-Trp)” value in experiment [3] (Km (~15 μM) vs literature Kd (0.53 mM) of ligand-free hIDO) is ~ 40 fold. Besides, the “kon, previously published” value in experiment [4] is 1.55e+10 M⁻¹ s⁻¹. Also, the “self-inhibition (substrate inhibition) constant Ksi” value in [5] (hIDO steady-state turnover) is recorded as 0.17 mM. Also, the Km in experiment [5] (read-out: Km of L-Trp, hIDO steady-state reactions) is 15 ± 2 µM; in the experiment with TDO (xcTDO) [8], 114 µM; in experiment [9], 12 µM.

For orientation: Kd means a measure of binding affinity in units of concentration. What is called Km is the substrate concentration at which the rate is half of its maximum.

Values taken from article PMC5450916 (Biochemistry, 2010).
